Source: PubChem BioAssay (NCI)
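Interpolation was linear, between the two tested concentrations surrounding the appropriate level; five concentrations were tested over 48 hours in 96-well plates. The concentration for 50% growth inhibition is given as GI50. The concentration for full growth arrest is given as TGI.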

How the values were obtained:
Assay in all cases: inhibition of tumour cell growth, NCI panel, 48 h
[1] = tested on: HCT-116 colon
[2] = tested on: COLO 205 colon
[3] = tested on: HCT-15 colon
[4] = tested on: SK-MEL-5 melanoma
[5] = tested on: HT29 colon
[6] = tested on: UACC-62 melanoma
[7] = tested on: A549 NSCLC
[8] = tested on: UACC-257 melanoma
[9] = tested on: MALME-3M melanoma
[10] = tested on: PC-3 prostate

| SMILES | GI50 [1] [µM] | TGI [1] [µM] | GI50 [2] [µM] | TGI [2] [µM] | GI50 [3] [µM] | TGI [3] [µM] | GI50 [4] [µM] | TGI [4] [µM] | GI50 [5] [µM] | TGI [5] [µM] | GI50 [6] [µM] | TGI [6] [µM] | GI50 [7] [µM] | TGI [7] [µM] | GI50 [8] [µM] | TGI [8] [µM] | GI50 [9] [µM] | TGI [9] [µM] | GI50 [10] [µM] | TGI [10] [µM] |
| --- | --- | --- | --- | --- | --- | --- | --- | --- | --- | --- | --- | --- | --- | --- | --- | --- | --- | --- | --- | --- |
| CC(C)Nc1ccc(Nc2ccccc2)cc1 | 14.1 | 31.4 | 14.3 | 31.3 | 21.5 | 77 | 11.4 | 24.9 | 17 | 48.4 | 11.6 | 51.6 | 26.2 | > 100 | 15.6 | 31.5 | 14.9 | 43.2 | 9.2 | 31.3 |
| CCC[CH2][Sn]([CH2]CCC)([O]C(=O)c1cc(F)ccc1F)[O][Sn]([CH2]CCC)([CH2]CCC)[O]C(=O)c1cc(F)ccc1F | 0.293 | 1.24 | 0.413 | 1.2 | 0.254 | 0.87 | 0.626 | 1.83 | 0.899 | 2.21 | 0.206 | 0.665 | 1.77 | 3.68 | 0.255 | 1.21 | 0.125 | 0.339 | 0.759 | 2.01 |
| Nc1ncnc2c1ncn2Cc1ccc(C23CC4CC(CC(C4)C2)C3)c(OCc2cc(F)c(F)cc2F)c1 | 3.08 | 13.2 | 14.4 | > 100 | 4.92 | > 100 | 0.955 | > 100 | 12 | > 100 | 4.75 | > 100 | 3.61 | 14.7 | 2.33 | 7.4 | 4.59 | > 100 | 2.17 | 10.9 |
| CC(C)(O)C#Cc1ccc(/C=C/C(=O)c2ccccc2)s1 | 4.08 | 15.4 | 16.9 | 32.7 | 15.7 | 30.8 | 16.1 | 30.5 | 13.5 | 29.9 | 13.7 | 26.6 | 16.5 | 30.5 | 18.4 | 32.4 | 16.4 | 36.1 | 13.6 | 29.7 |
| O=C1c2cccnc2C(=O)C2C3C=CC(C3)C12 (stereo not drawn) | – | 14 | – | 26.5 | – | 34.8 | – | 23.2 | – | 60.9 | – | 9.94 | – | 50.8 | – | 26.2 | – | 29.5 | – | 21.8 |
| Cc1cc2cc3cc(C)c(N(C)C)cc3[n+](C)c2cc1N(C)C | 2.55 | 20.7 | 2.51 | 17.5 | 4.52 | 72.8 | 2.1 | 6.96 | 2.46 | > 100 | 4.91 | 23.6 | 3.1 | > 100 | 4.73 | 37.7 | 3.6 | 19.4 | 2.46 | 33.8 |
| Cc1nc(-c2ccccc2)c(Cc2ccccc2O)c(=O)[nH]1 | – | > 100 | – | > 100 | – | > 100 | – | > 100 | – | > 100 | – | > 100 | – | > 100 | – | > 100 | – | > 100 | – | > 100 |
| CCCc1cc(O)c2c3c(c(=O)oc2c1)CN(C)CC3 | 66.8 | > 100 | 40.6 | > 100 | 39.9 | > 100 | 19 | 44.7 | 39.5 | > 100 | 47.2 | > 100 | > 100 | > 100 | 26.1 | > 100 | 35.1 | > 100 | > 100 | > 100 |
| CC(=O)Nc1ccc(/C=C/C(=O)c2ccccc2)cc1 | 3.98 | 15.5 | 14.8 | 28 | 7.54 | 37.4 | 16.2 | 30.3 | 8.29 | 24.9 | 17.8 | 39.2 | 20.5 | 45.4 | 20.7 | 54.7 | 16.7 | 36.9 | 23.2 | 66.2 |
| CCCCOc1ccc(NC(=O)n2nc(N)c3ccccc32)cc1 | 19.3 | 55.7 | 18 | 41 | 16.9 | 70.4 | 14.9 | 28.2 | 9.98 | 26 | 14.7 | 38.3 | 21.6 | > 87.9 | 24.8 | 73.5 | 18.9 | 48.4 | 13.9 | 54.1 |
| CC(=O)N1N=C(c2ccc(Nc3nc(Nc4ccc(Cl)cc4)nc(Nc4ccc(Cl)cc4)n3)cc2)CC1c1ccc([N+](=O)[O-])cc1 (stereo not drawn) | 3.24 | 34.8 | 1.82 | 6.64 | 4.11 | > 94.3 | 3.22 | 15.8 | 4.74 | > 95 | 11.9 | 34.9 | 5.57 | > 86.5 | 11.4 | > 72.4 | 14.7 | 71.7 | 2.92 | > 69.4 |
| COc1cc2c(cc1O)-c1c(cnn1-c1ccc([N+](=O)[O-])cc1)CCC2 | – | 71.4 | – | 38.1 | – | 30.5 | – | 26.2 | – | 35.6 | – | 8.42 | – | 42.4 | – | 52 | – | 29.2 | – | 58.7 |
| O=C1CC(c2cccc(O)c2)C2(C(=O)NC(=S)NC2=O)C(c2cccc(O)c2)C1 (stereo not drawn) | > 100 | > 100 | > 100 | > 100 | > 100 | > 100 | > 100 | > 100 | > 100 | > 100 | > 100 | > 100 | > 100 | > 100 | > 100 | > 100 | > 100 | > 100 | > 100 | > 100 |
| O=c1c2ccccc2c(Br)c(Br)c2ccccc12 | 4.92 | 29.3 | 8.61 | 23.7 | 10.7 | > 100 | 13.6 | 31.6 | 3.04 | 8.13 | 18.3 | 59.5 | 20.6 | 73 | 7.48 | 43.6 | 2.66 | 7.65 | 10.1 | 30.2 |
| C/C=C/C/C=C/CCC(=O)[C@H]1O[C@H]1C(N)=O | 8.15 | 22 | 15.3 | 31.5 | 8.45 | 24.1 | 12.5 | 25.2 | – | 31.8 | 11.4 | 23.9 | 17.3 | 51.3 | 13.1 | 27.3 | 13.7 | 32.9 | – | 40.7 |
| Nc1nc(N)c(Cn2ccnc2)c(=O)[nH]1 | – | > 100 | – | > 100 | – | > 100 | – | > 100 | – | > 100 | – | > 100 | – | > 100 | – | > 100 | – | > 100 | – | > 100 |
| COc1cc(C(=O)N2N=C(c3ccc(S(C)(=O)=O)cc3)CC2c2ccco2)cc(OC)c1OC (stereo not drawn) | 3.77 | > 100 | 2.27 | 10.1 | 4.13 | > 100 | 2.99 | > 63.2 | 3.17 | > 100 | 3.82 | > 100 | 6.92 | > 100 | > 100 | > 100 | 5.01 | > 100 | 2.93 | > 100 |
